The compounds below were run against T1, Chronophin (Mus musculus, UniProt P60487) (assay: Inhibition of recombinant mouse brain PDXP expressed in Escherichia coli BL21 (DE3) cells assessed as pyridoxal 5' phosphate dephosphorylation preincubated for 4 mins followed by substrate addition measured after 5 mins).
T1 sequence (P60487 whole entry): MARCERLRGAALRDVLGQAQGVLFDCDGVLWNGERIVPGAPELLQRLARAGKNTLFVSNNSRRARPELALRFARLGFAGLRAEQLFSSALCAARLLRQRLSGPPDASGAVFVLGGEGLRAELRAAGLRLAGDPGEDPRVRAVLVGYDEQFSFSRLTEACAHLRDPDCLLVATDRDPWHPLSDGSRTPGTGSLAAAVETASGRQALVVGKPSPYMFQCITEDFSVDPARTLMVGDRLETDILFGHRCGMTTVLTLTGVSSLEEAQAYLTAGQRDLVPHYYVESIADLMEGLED
Cc1ncc(CCP(=O)(O)O)c(C=O)c1O was tested, and the IC50 was 79 µM. Cc1ncc(/C=C/P(=O)(O)O)c(C=O)c1O gave an IC50 of 246 µM. With Cc1ncc(CCP(=O)(O)O)c(CO)c1O the IC50 was 1300 µM. Compound Cc1ncc(/C=C/P(=O)(O)O)c(CO)c1O has an IC50 of 1300 µM.

From ChEMBL document CHEMBL3425448, “Synthesis of hydrolysis-resistant pyridoxal 5'-phosphate analogs and their biochemical and X-ray crystallographic characterization with the pyridoxal phosphatase chronophin” (Bioorg Med Chem, 2015)
